Test results taken from publication PMC4104029, “Mechanism of Action of Compound-13: An α1-Selective Small Molecule Activator of AMPK” (Chemistry & Biology, 2014).

Assays:
[1] = system: isolated, full-length AMPKα1 and α2 subunits; experiment: Isolated AMPKα subunit activity assay; type: biochemical, human; conditions: C2 0–1000 nM, conditions as Figure 1B
Description: (§1) Supplemental Figure Legends:
Figure S1, related to Figures 1-3. Subunit composition of AMPK preparations used in this study. (A) Heterotrimeric AMPK complexes (10 ng) produced in both Sf9 (Sigma and Signalchem) and E.coli (in our laboratory) were analysed by Western blotting using isoform specific antibodies. Note that both the α2/α1-HOOK and α2/α1-LOOP chimeras are no longer recognised by the anti-α2 antibody as the epitope has been replaced (see Fig S4). (B) Heterotrimeric AMPK α2/α1 chimeric complexes expressed in E.coli (2 μg) were separated by SDS-PAGE and stained with Coomassie G-250. Arrows indicate the position of the […]
Figure S2, related to Figure 1. C2 has negligible effects on a panel of 138 protein kinases.
Kinase inhibition screen was performed by the International Centre for Kinase profiling (Dundee). Assays were performed in duplicate using 10 µM C2 and are representative of two independent screens. Results are shown in rank order as mean % activity compared with controls in the absence of compound ± SD. […]
(§2) Figure S3, related to Figure 2. […] Results are expressed as mean Pi incorporated in nmol.min-1.mg-1 ± SD. […] Results are expressed as fold increase in activity relative to controls in the absence of compound ± SD.
(§3) (E) C2 and AMP displace a GST-AMPKγ2 subunit fusion from ATP-γ-Sepharose. […] The presence of eluted AMPKγ2 was analysed by SDS-PAGE and staining with colloidal Coomassie. […]

PP2Cα = molecular target: T1, PP2Cα (Homo sapiens, UniProt P35813); experiment: PP2Cα activity on synthetic peptide substrate; type: biochemical; conditions: synthetic peptide substrate EFLR(pT)SCGS
T1 construct: purchased Division of Signal Transduction Therapy (DSTT, Dundee); host or cells: E. coli
Description: AMPKα1β1γ1 or α2β1γ1 was dephosphorylated in vitro with PP2Cα in 50 mM HEPES pH 7.4, 10 mM MgCl2, 0.1 mM EGTA, 0.03% BRIJ-35, 1 mM DTT, and the indicated compounds for 15 min at 30°C. Mg^2+ was omitted from the negative control. Reactions were terminated by 20-fold dilution and storage on ice. AMPK activity was assayed under standard conditions in the presence of saturating AMP (200 μM). The results are expressed as percentage activity of the negative control. In control experiments, PP2Cα activity was determined in reactions containing 50 mM TES pH 7.4, 0.1 mM EGTA, 25 mM MgCl2, 0.01% BRIJ-35, 0.02% (v/v) 2-mercaptoethanol, and 100 μM EFLR(pT)SCGS (168–176 AMPKα2). Liberated phosphate was determined using malachite green ([Baykov et al., 1988]).
as §1
Figure S1, related to Figures 1-3. […] (A) Heterotrimeric AMPK complexes (10 ng) produced in both Sf9 (Sigma and Signalchem) and E.coli (in our laboratory) were analysed by Western blotting using isoform specific antibodies. […]
as §2, §3

T1 sequence (P35813 whole entry, species assumed): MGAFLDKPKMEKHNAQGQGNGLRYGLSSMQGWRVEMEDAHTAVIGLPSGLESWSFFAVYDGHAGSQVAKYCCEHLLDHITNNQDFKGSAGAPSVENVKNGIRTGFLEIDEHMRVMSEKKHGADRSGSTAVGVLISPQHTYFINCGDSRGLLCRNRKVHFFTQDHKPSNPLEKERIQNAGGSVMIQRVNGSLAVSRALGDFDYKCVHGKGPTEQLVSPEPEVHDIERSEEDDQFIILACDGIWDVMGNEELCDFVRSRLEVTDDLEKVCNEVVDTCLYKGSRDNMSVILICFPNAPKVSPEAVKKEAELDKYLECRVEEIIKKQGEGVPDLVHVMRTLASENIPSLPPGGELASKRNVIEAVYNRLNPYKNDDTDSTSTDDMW

O=P(O)(O)c1ccc(-c2cc(O)on2)o1 [Compound C2, 5-(5-hydroxyl-isoxazol-3-yl)-furan-2-phosphonic acid]
effect on activity [1]: no effect | direct effect on PP2Cα activity (PP2Cα): no direct effect
